Tests used:
Assay in all cases: relative viability (nuclei count vs DMSO), 5 days (fraction); higher = more cells survive
NCI-H358 = system: NCI-H358
Summary of the method: (§1)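 Relative viability was taken as the ratio of nuclei in treated wells to nuclei in vehicle wells. Lung cancer cell lines in 1536-well plates received compounds by pin tool one day after seeding, either one drug alone or a fixed anchor-drug dose plus five library-drug doses (not always all listed) in √10 steps. Nuclei were counted on 4× images after 5 days of treatment, and values are medians of duplicate plates.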

PC-14 = system: PC-14
Summary of the method: as §1

EPLC-272H = system: EPLC-272H
Summary of the method: as §1

ABC-1 = system: ABC-1
Summary of the method: as §1

NCI-H522 = system: NCI-H522
Summary of the method: as §1

NCI-H1915 = system: NCI-H1915
Summary of the method: as §1

NCI-H460 = system: NCI-H460
Summary of the method: as §1

NCI-H2085 = system: NCI-H2085
Summary of the method: as §1

NCI-H2342 = system: NCI-H2342
Summary of the method: as §1

NCI-H2009 = system: NCI-H2009
Summary of the method: as §1

HCC-78 = system: HCC-78
Summary of the method: as §1

NCI-H650 = system: NCI-H650
Summary of the method: as §1

NCI-H1993 = system: NCI-H1993
Summary of the method: as §1

LC-2-ad = system: LC-2-ad
Summary of the method: as §1

SW 1573 = system: SW 1573
Summary of the method: as §1

NCI-H2126 = system: NCI-H2126
Summary of the method: as §1

HCC-15 = system: HCC-15
Summary of the method: as §1

HARA = system: HARA
Summary of the method: as §1

NCI-H838 = system: NCI-H838
Summary of the method: as §1

NCI-H2347 = system: NCI-H2347
Summary of the method: as §1

COR-L23 = system: COR-L23
Summary of the method: as §1

LU99A = system: LU99A
Summary of the method: as §1

NCI-H1651 = system: NCI-H1651
Summary of the method: as §1

UMC-11 = system: UMC-11
Summary of the method: as §1

In the case of `C[C@@H]1CN(CC(=O)Nc2ccc3c(c2)Cc2cccc(-c4cc(=O)cc(N5CCOCC5)o4)c2S3)C[C@H](C)O1` + Cc1nc(Nc2ncc(C(=O)Nc3c(C)cccc3Cl)s2)cc(N2CCN(CCO)CC2)n1 [Dasatinib] (partner 0.075 µM), the relative viability (NCI-H358; first compound 0.04 µM) is reported as 0.2, the relative viability (NCI-H358; first compound 0.1265 µM) is reported as 0.163 and the relative viability (NCI-H358; first compound 0.4 µM) is reported as 0.144. The relative viability (NCI-H358; first compound 4 µM) was 0.157, the relative viability (PC-14; first compound 0.04 µM) was 0.286 and the relative viability (PC-14; first compound 0.1265 µM) was 0.254. It also gave a relative viability (PC-14; first compound 0.4 µM) of 0.314, a relative viability (PC-14; first compound 4 µM) of 0.147 and a relative viability (EPLC-272H; first compound 0.04 µM) of 0.459. The relative viability (EPLC-272H; first compound 0.1265 µM) was 0.284, the relative viability (EPLC-272H; first compound 0.4 µM) was 0.319 and the relative viability (EPLC-272H; first compound 4 µM) was 0.341. The relative viability (ABC-1; first compound 0.1265 µM) was 0.571, the relative viability (ABC-1; first compound 0.4 µM) was 0.447 and the relative viability (ABC-1; first compound 4 µM) was 0.504. For the same molecule, the relative viability (NCI-H522; first compound 0.04 µM) was 0.775, the relative viability (NCI-H522; first compound 0.1265 µM) was 0.773 and the relative viability (NCI-H522; first compound 0.4 µM) was 0.806. It also gave a relative viability (NCI-H522; first compound 4 µM) of 0.828, a relative viability (NCI-H1915; first compound 0.04 µM) of 0.307 and a relative viability (NCI-H1915; first compound 0.1265 µM) of 0.308. For the same molecule, the relative viability (NCI-H1915; first compound 0.4 µM) was 0.319, the relative viability (NCI-H1915; first compound 4 µM) was 0.278 and the relative viability (NCI-H460; first compound 0.04 µM) was 0.606. It also gave a relative viability (NCI-H460; first compound 0.1265 µM) of 0.484, a relative viability (NCI-H460; first compound 0.4 µM) of 0.427 and a relative viability (NCI-H460; first compound 4 µM) of 0.339. It also gave a relative viability (NCI-H2085; first compound 0.04 µM) of 0.222, a relative viability (NCI-H2085; first compound 0.1265 µM) of 0.245 and a relative viability (NCI-H2085; first compound 0.4 µM) of 0.235. For the same molecule, the relative viability (NCI-H2085; first compound 4 µM) was 0.247, the relative viability (NCI-H2342; first compound 0.04 µM) was 0.326 and the relative viability (NCI-H2342; first compound 0.1265 µM) was 0.292. For the same molecule, the relative viability (NCI-H2342; first compound 0.4 µM) was 0.29, the relative viability (NCI-H2342; first compound 4 µM) was 0.306 and the relative viability (NCI-H2009; first compound 0.04 µM) was 0.383. The relative viability (NCI-H2009; first compound 0.1265 µM) was 0.29, the relative viability (NCI-H2009; first compound 0.4 µM) was 0.305 and the relative viability (NCI-H2009; first compound 4 µM) was 0.155. It also gave a relative viability (HCC-78; first compound 0.04 µM) of 0.366, a relative viability (HCC-78; first compound 0.1265 µM) of 0.363 and a relative viability (HCC-78; first compound 0.4 µM) of 0.362. The relative viability (HCC-78; first compound 4 µM) was 0.519, the relative viability (NCI-H650; first compound 0.04 µM) was 0.45 and the relative viability (NCI-H650; first compound 0.1265 µM) was 0.445. It also gave a relative viability (NCI-H650; first compound 0.4 µM) of 0.359, a relative viability (NCI-H650; first compound 4 µM) of 0.384 and a relative viability (NCI-H1993; first compound 0.04 µM) of 0.643. It also gave a relative viability (NCI-H1993; first compound 0.1265 µM) of 0.626, a relative viability (NCI-H1993; first compound 0.4 µM) of 0.556 and a relative viability (NCI-H1993; first compound 4 µM) of 0.641. It also gave a relative viability (LC-2-ad; first compound 0.04 µM) of 0.583, a relative viability (LC-2-ad; first compound 0.1265 µM) of 0.55 and a relative viability (LC-2-ad; first compound 0.4 µM) of 0.487. For the same molecule, the relative viability (LC-2-ad; first compound 4 µM) was 0.492, the relative viability (SW 1573; first compound 0.04 µM) was 0.736 and the relative viability (SW 1573; first compound 0.1265 µM) was 0.613. It also gave a relative viability (SW 1573; first compound 0.4 µM) of 0.515, a relative viability (SW 1573; first compound 4 µM) of 0.355 and a relative viability (NCI-H2126; first compound 0.04 µM) of 0.607. The relative viability (NCI-H2126; first compound 0.1265 µM) was 0.604, the relative viability (NCI-H2126; first compound 0.4 µM) was 0.467 and the relative viability (NCI-H2126; first compound 4 µM) was 0.418. The relative viability (HCC-15; first compound 0.04 µM) was 0.659, the relative viability (HCC-15; first compound 0.1265 µM) was 0.6 and the relative viability (HCC-15; first compound 0.4 µM) was 0.531. For the same molecule, the relative viability (HCC-15; first compound 4 µM) was 0.455, the relative viability (HARA; first compound 0.1265 µM) was 0.204 and the relative viability (HARA; first compound 0.4 µM) was 0.34. For the same molecule, the relative viability (HARA; first compound 4 µM) was 0.258, the relative viability (NCI-H838; first compound 0.04 µM) was 0.27 and the relative viability (NCI-H838; first compound 0.1265 µM) was 0.233. For the same molecule, the relative viability (NCI-H838; first compound 0.4 µM) was 0.221, the relative viability (NCI-H838; first compound 4 µM) was 0.188 and the relative viability (NCI-H2347; first compound 0.04 µM) was 0.329. For the same molecule, the relative viability (NCI-H2347; first compound 0.1265 µM) was 0.39, the relative viability (NCI-H2347; first compound 0.4 µM) was 0.248 and the relative viability (NCI-H2347; first compound 4 µM) was 0.337. It also gave a relative viability (COR-L23; first compound 0.04 µM) of 0.588, a relative viability (COR-L23; first compound 0.1265 µM) of 0.46 and a relative viability (COR-L23; first compound 0.4 µM) of 0.593. The relative viability (COR-L23; first compound 4 µM) was 0.369, the relative viability (LU99A; first compound 0.04 µM) was 0.523 and the relative viability (LU99A; first compound 0.1265 µM) was 0.491. It also gave a relative viability (LU99A; first compound 0.4 µM) of 0.488, a relative viability (LU99A; first compound 4 µM) of 0.523 and a relative viability (NCI-H1651; first compound 0.04 µM) of 0.47. For the same molecule, the relative viability (NCI-H1651; first compound 0.1265 µM) was 0.411, the relative viability (NCI-H1651; first compound 0.4 µM) was 0.478 and the relative viability (NCI-H1651; first compound 4 µM) was 0.348. The relative viability (UMC-11; first compound 0.04 µM) was 0.475, the relative viability (UMC-11; first compound 0.1265 µM) was 0.478 and the relative viability (UMC-11; first compound 0.4 µM) was 0.505. For the same molecule, the relative viability (UMC-11; first compound 4 µM) was 0.448.

Reference: the supplement of paper PMC10307832
